According to patent US8507684B2, “1-cyclopropyl-8-methyl-7-[5-methyl-6-(methylamino)-3-pyridinyl]-4-oxo-1,4-dihydro-3-quinolinecarboxylic acid salts” (Ferrer Internacional S.A., priority 2010, dated 2013):

Assay: Aqueous solubility of the salts determined by HPLC
Type: physicochemical
Conditions: for pH: pH of Table 2 for the aqueous solubility samples (water, 2 h at 20° C.); for solubility at 2 h: thermodynamic from solid, read-out: Solubility in H2O
Method: To determine the aqueous solubility of the salts, suspensions of the salts were shaken 2 h at 20° C. and 400 rpm. Afterwards the mixtures were filtered (0.1 μm centrifuge filter) and the concentrations were determined by HPLC.

[1] = suspension in water shaken 2 h at 20° C. and 400 rpm, filtered (0.1 μm), concentration by HPLC

1-Cyclopropyl-8-methyl-7-[5-methyl-6-(methylamino)-3-pyridinyl]-4-oxo-1,4-dihydro-3-quinolinecarboxylic acid hemi-fumarate salt
pH: 4.8 | Solubility in H2O [1]: 89.7 µg/mL

CNc1ncc(-c2ccc3c(=O)c(C(=O)O)cn(C4CC4)c3c2C)cc1C.O=C(O)CC(O)(CC(=O)O)C(=O)O [Citrate, 1-Cyclopropyl-8-methyl-7-[5-methyl-6-(methylamino)-3-pyridinyl]-4-oxo-1,4-dihydro-3-quinolinecarboxylic acid citrate salt]
pH: 2.7 | solubility at 2 h [1]: 5220 µg/mL

CNc1ncc(-c2ccc3c(=O)c(C(=O)O)cn(C4CC4)c3c2C)cc1C [Free drug, 1-Cyclopropyl-8-methyl-7-[5-methyl-6-(methylamino)-3-pyridinyl]-4-oxo-1,4-dihydro-3-quinolinecarboxylic acid]
solubility in water (in words) (general statement, no conditions given): low solubility in water | pH: 8.5 | solubility at 2 h [1]: 19 µg/mL

CNc1ncc(-c2ccc3c(=O)c(C(=O)O)cn(C4CC4)c3c2C)cc1C.Cl.O [Hydrochloride monohydrate, 1-Cyclopropyl-8-methyl-7-[5-methyl-6-(methylamino)-3-pyridinyl]-4-oxo-1,4-dihydro-3-quinolinecarboxylic acid hydrochloride monohydrate salt]
pH: 2.8 | solubility at 2 h [1]: 2000 µg/mL

CNc1ncc(-c2ccc3c(=O)c(C(=O)O)cn(C4CC4)c3c2C)cc1C.O=C(O)C(O)C(O)C(=O)O [L-Tartrate, 1-Cyclopropyl-8-methyl-7-[5-methyl-6-(methylamino)-3-pyridinyl]-4-oxo-1,4-dihydro-3-quinolinecarboxylic acid L-tartrate salt]
pH: 2.5 | solubility at 2 h [1]: 4600 µg/mL

CNc1ncc(-c2ccc3c(=O)c(C(=O)O)cn(C4CC4)c3c2C)cc1C.O=C(O)/C=C\C(=O)O [Maleate, 1-Cyclopropyl-8-methyl-7-[5-methyl-6-(methylamino)-3-pyridinyl]-4-oxo-1,4-dihydro-3-quinolinecarboxylic acid maleate salt]
pH: 5.3 | solubility at 2 h [1]: 149 µg/mL

CNc1ncc(-c2ccc3c(=O)c(C(=O)O)cn(C4CC4)c3c2C)cc1C.CS(=O)(=O)O [Mesylate, 1-Cyclopropyl-8-methyl-7-[5-methyl-6-(methylamino)-3-pyridinyl]-4-oxo-1,4-dihydro-3-quinolinecarboxylic acid mesylate salt]
pH: 2.4 | solubility at 2 h [1]: 113000 µg/mL

CNc1ncc(-c2ccc3c(=O)c(C(=O)[O-])cn(C4CC4)c3c2C)cc1C.[K+] [Potassium, 1-Cyclopropyl-8-methyl-7-[5-methyl-6-(methylamino)-3-pyridinyl]-4-oxo-1,4-dihydro-3-quinolinecarboxylic acid potassium salt]
pH: 9.8 | solubility at 2 h [1]: 109000 µg/mL

CNc1ncc(-c2ccc3c(=O)c(C(=O)[O-])cn(C4CC4)c3c2C)cc1C.[Na+] [Sodium, 1-Cyclopropyl-8-methyl-7-[5-methyl-6-(methylamino)-3-pyridinyl]-4-oxo-1,4-dihydro-3-quinolinecarboxylic acid sodium salt]
pH: 9.0 | solubility at 2 h [1]: 159000 µg/mL
